In paper PMC6934184, “Selective DNA-PKcs inhibition extends the therapeutic index of localized radiotherapy and chemotherapy” (The Journal of Clinical Investigation, 2019):

Molecular target: T1, PAK4 (Homo sapiens, UniProt O96013)
T1 construct: purchased Thermo Fisher Scientific (Life Technologies) SelectScreen
Assay: SelectScreen Z'LYTE
Format: biochemical
How it was run: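 SelectScreen broad panel; activity (Z'LYTE, Adapta) plus binding formats. ATP: Km app for CSF1R Z'LYTE; 10 for CAMK1 Adapta. Readout = % per kinase.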

T1 sequence (O96013 whole entry): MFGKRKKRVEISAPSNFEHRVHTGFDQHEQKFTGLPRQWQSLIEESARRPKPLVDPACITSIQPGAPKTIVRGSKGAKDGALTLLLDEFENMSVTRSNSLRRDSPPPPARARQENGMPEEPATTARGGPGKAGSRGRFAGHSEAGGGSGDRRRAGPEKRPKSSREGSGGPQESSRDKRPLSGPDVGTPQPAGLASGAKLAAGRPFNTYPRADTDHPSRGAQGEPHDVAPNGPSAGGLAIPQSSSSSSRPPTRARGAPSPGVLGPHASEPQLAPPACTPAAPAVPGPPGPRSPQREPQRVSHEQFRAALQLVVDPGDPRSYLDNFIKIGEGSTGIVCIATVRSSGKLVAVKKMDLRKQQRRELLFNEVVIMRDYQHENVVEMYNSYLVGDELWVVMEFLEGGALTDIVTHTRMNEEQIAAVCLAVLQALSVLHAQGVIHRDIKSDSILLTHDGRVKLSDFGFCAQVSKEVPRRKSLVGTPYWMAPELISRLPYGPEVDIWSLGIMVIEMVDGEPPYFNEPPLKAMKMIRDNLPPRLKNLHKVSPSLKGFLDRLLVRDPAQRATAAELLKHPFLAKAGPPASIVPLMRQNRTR

CN(C(=O)CN1CCOCC1)c1ccc2sc3c(-c4cccc5c(=O)cc(N6CC7CCC(C6)O7)oc45)cccc3c2c1 [NU5455]
inhibition at 1 µM: -3.3%
